Data reported in patent US20250214896A1, “THIOL / SULFIDE CONTAINING CONCRETE COMPOSITION” (Yarmouk University, priority 2024, published 2025).

Key:
[1] = physchem
Source text: The reduction attributes of these compounds are subject to pH conditions, specifically, in the alkaline media of the cement mixture where the pH is around 12.

[2] = Dimerization of thiol monomers under oxidizing conditions, evaluated by reverse-phase HPLC; format: physicochemical; settings: about 0.56 M thiol, 10% NaOH, 3.0% hydrogen peroxide
Method: In this example, reference will be made to FIGS. 1 and 2. In this example, the role of thiol group was evaluated by oxidizing the monomers generating a dimer. About 10% by volume aqueous NaOH solution was added to about 0.56 M of mercapto (thiol) series (cysteine, cysteine methyl ester, beta-mercaptoethanol, and dithiothreitol), then a […] step was performed using about 3.0% by volume aqueous solution of hydrogen peroxide. Subsequently, centrifugation was performed at about 3000 rpm for about 5 minutes, then the supernatant was discarded and the pellets were recrystallized followed by rinsing with a few drops of cold water.
The dimerization process was evaluated using reverse-phase HPLC. For the analysis, about 5 μL injection volume was used. The mobile phase consisted of a mixture of acetonitrile and water in a ratio of about 65:35. […] Two distinct peaks were identified at distinct retention times.
The modification of the carboxylic group to a methyl ester increased the acidity of the ammonium protons relative to the thiol protons. […] The inhibitory effect of the ester group on disulfide bond formation was attributed to the presence of the methyl ester group in cysteine methyl ester.

OCC(S)CS (stereo not drawn) [2,3-disulfanylpropan-1-ol]
pKa ([1]; pKa of the OH): 15.8
pKa ([1]; pKa of the primary SH): 8.95
pKa ([1]; pKa of the secondary SH): 8.05

β-mercapto ethanol [β-mercaptoethanol]
pKa of the OH [1]: 16.25
pKa of the SH [1]: 8.51

O[C@H](CS)[C@H](O)CS (racemic) [dithiothreitol]
pKa ([1]; pKa of the first SH): 8.12
pKa ([1]; pKa of the second SH): 8.72

OCC(O)C(S)CS (stereo not drawn) [3,4-disulfanylbutane-1,2-diol, 3,4-disulfanyl-butane-1,2-diol]
pKa ([1]; pKa of the primary OH): 15.8
pKa ([1]; pKa of the primary SH): 8.93
pKa ([1]; pKa of the secondary OH): 14.3
pKa ([1]; pKa of the secondary SH): 7.98

N[C@@H](CS)C(=O)O [cysteine]
pKa ([1]; pKa of the COOH): 2.35
pKa ([1]; pKa of the NH2): 9.54
pKa ([1]; pKa of the SH): 6.61
dimer (disulfide) formation on oxidation [2]: successful formation of cysteine dimer

COC(=O)[C@@H](N)CS [cysteine methyl ester]
pKa [1]: 6.86
pKa ([1]; pKa of the NH2): 7.93
dimer (disulfide) formation on oxidation [2]: unable to form a dimer
